According to patent US7612064B2, “Sulfopyrroles” (Takeda Pharmaceutical Company Limited, priority 2003, dated 2009):

What was measured:
[1] = tested on: MRC5; assay: MTS proliferation assay; format: cell-based; settings: MRC5, 72 h
Procedure: (§1) The assay is performed in 96 well tissue culture plates. […] The test compounds are added in 20 μl complete medium containing max 5% DMSO. The final compound concentrations in the assays are 10 μM, 3 μM, 1 μM and 0.3 μM, respectively. The assay plates are incubated for 72 h at culture conditions. The MTS reagent is prepared according to the manufacturer's protocol (Promega G1111). 20 μl MTS reagent are added to each well, the assay plates are quickly spun and incubated for another 3 h at culture conditions. Subsequently, the plates are shortly shacked and absorption measured with a microplate-reader at 492 nm.

[2] = tested on: Jurkat; assay: MTS proliferation assay; format: cell-based, human; settings: 72 h
Procedure: as §1

[3] = tested on: HeLa; assay: MTS proliferation assay; format: cell-based, human; settings: 72 h
Procedure: as §1

[4] = Hoechst 33342 nuclear staining; format: cell-based; settings: for Hoechst 33342 nuclear staining score, HeLa: HeLa cells; for Hoechst 33342 nuclear staining score, Jurkat: Jurkat cells; for Hoechst 33342 nuclear staining score, H460: H460 cells; for Hoechst 33342 nuclear staining score, Jily: Jily cells; for Hoechst 33342 nuclear staining score, MRC5: MRC5 cells;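 for all read-outs here: apoptotic nuclei scored 0 none 1 weak under 50% of cells 2 strong over 50% of cells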
Procedure: This assay is performed in 96 well tissue culture plates. Appropriate number of cells (adherent cells: 3-5*10^3, suspension cells: 8-10*10^3) are being seeded out in 80 μl complete medium. Adherent cells are incubated for 24 h for proper spreading out before addition of test compounds while suspension cells are immediately treated with test compounds after seeding out. The test compounds are added in 20 μl complete medium containing max 5% DMSO. […] […] The assay plates are then further incubated for 30 min and subsequently analyzed with a standard inverted fluorescence microscope.
The readout allows the determination of the fraction of apoptotic nuclei as well as other morphological criteria specific for apoptosis as a function of the treatment. The following scores are used: 0 relating to no activity, 1 relating to weak activity comprising less than 50% of the cells and score 2 relating to strong activity comprising more than 50% of the cells.

[5] = conc 0.1 (final concentrations in μM), 24 h or 48 h incubation
[6] = conc 0.3 (final concentrations in μM), 24 h or 48 h incubation
[7] = conc 1 (final concentrations in μM), 24 h or 48 h incubation
[8] = conc 3 (final concentrations in μM), 24 h or 48 h incubation
[9] = conc 10 (final concentrations in μM), 24 h or 48 h incubation

SMILES: COc1cc(-c2cc(CNCCCN3CCN(C)CC3)cn2S(=O)(=O)c2ccc(C)cc2)cc(OC)c1OC [Example 3]
- IC50 [1]: > 1000 nM
- IC50 [2]: > 1000 nM
- IC50 [3]: > 1000 nM

SMILES: Cc1ccc(S(=O)(=O)n2cc(CNC(CN3CCN(C)CC3)c3ccccc3)cc2-c2ccc3c(c2)OCO3)cc1 (centres unmarked) [Example 24]
- IC50 [1]: > 1000 nM
- Hoechst 33342 nuclear staining score, HeLa [4, 5]: 0
- Hoechst 33342 nuclear staining score, HeLa [4, 6]: 0
- Hoechst 33342 nuclear staining score, HeLa [4, 7]: 0
- Hoechst 33342 nuclear staining score, HeLa [4, 8]: 0
- Hoechst 33342 nuclear staining score, Jurkat [4, 5]: 0
- Hoechst 33342 nuclear staining score, Jurkat [4, 6]: 0
- Hoechst 33342 nuclear staining score, Jurkat [4, 7]: 0
- Hoechst 33342 nuclear staining score, Jurkat [4, 8]: 0
- IC50 [2]: > 1000 nM

SMILES: Cc1ccc(S(=O)(=O)n2cc(CN3CCN(c4ccccn4)CC3)cc2-c2ccc3c(c2)OCO3)cc1 [Example 32]
- IC50 [1]: > 1000 nM
- Hoechst 33342 nuclear staining score, HeLa [4, 5]: 0
- Hoechst 33342 nuclear staining score, HeLa [4, 6]: 0
- Hoechst 33342 nuclear staining score, HeLa [4, 7]: 0
- Hoechst 33342 nuclear staining score, HeLa [4, 8]: 0
- Hoechst 33342 nuclear staining score, Jurkat [4, 5]: 0
- Hoechst 33342 nuclear staining score, Jurkat [4, 6]: 0
- Hoechst 33342 nuclear staining score, Jurkat [4, 7]: 0
- Hoechst 33342 nuclear staining score, Jurkat [4, 8]: 0
- IC50 [2]: > 1000 nM
- IC50 [3]: > 1000 nM

SMILES: CN1CCN(CCCNCc2cc(-c3ccc4c(c3)OCO4)n(S(=O)(=O)c3cccc(Cl)c3)c2)CC1 [Example 4, 1-(m-Chlorobenzenesulfonyl)-2-(3,4-methylenedioxyphenyl)-4-(N-[3-{4-methylpiperazinyl}-propyl]-aminomethyl)-pyrrole]
- IC50 [1]: > 1000 nM
- IC50 [2]: > 1000 nM
- IC50 [3]: > 1000 nM

SMILES: Cc1ccc(S(=O)(=O)n2cc(CNCCCN3CCN(Cc4ccccc4)CC3)cc2-c2ccc3c(c2)OCO3)cc1 [Example 23]
- IC50 [1]: > 1000 nM
- Hoechst 33342 nuclear staining score, HeLa [4, 5]: 0
- Hoechst 33342 nuclear staining score, HeLa [4, 6]: 0
- Hoechst 33342 nuclear staining score, HeLa [4, 7]: 0
- Hoechst 33342 nuclear staining score, HeLa [4, 8]: 0
- Hoechst 33342 nuclear staining score, Jurkat [4, 5]: 0
- Hoechst 33342 nuclear staining score, Jurkat [4, 6]: 0
- Hoechst 33342 nuclear staining score, Jurkat [4, 7]: 0
- Hoechst 33342 nuclear staining score, Jurkat [4, 8]: 0
- IC50 [2]: > 1000 nM
- IC50 [3]: > 1000 nM

SMILES: COc1cc(-c2cc(CNc3ccc(-n4cncn4)cc3)cn2S(=O)(=O)c2ccc(C)cc2)cc(OC)c1OC [Example 68]
- IC50 [1]: > 1000 nM
- Hoechst 33342 nuclear staining score, H460 ([4]; conc 0.1): 0
- Hoechst 33342 nuclear staining score, H460 ([4]; conc 0.3): 0
- Hoechst 33342 nuclear staining score, H460 ([4]; conc 1): 2 (strong activity comprising more than 50% of the cells)
- Hoechst 33342 nuclear staining score, H460 ([4]; conc 3): 2 (strong activity comprising more than 50% of the cells)
- Hoechst 33342 nuclear staining score, HeLa ([4]; conc 0.1): 0
- Hoechst 33342 nuclear staining score, HeLa ([4]; conc 0.3): 0
- Hoechst 33342 nuclear staining score, HeLa ([4]; conc 1): 0
- Hoechst 33342 nuclear staining score, HeLa ([4]; conc 3): 2 (strong activity comprising more than 50% of the cells)
- Hoechst 33342 nuclear staining score, Jily ([4]; conc 0.1): 0
- Hoechst 33342 nuclear staining score, Jily ([4]; conc 0.3): 0
- Hoechst 33342 nuclear staining score, Jily ([4]; conc 1): 2 (strong activity comprising more than 50% of the cells)
- Hoechst 33342 nuclear staining score, Jily ([4]; conc 3): 2 (strong activity comprising more than 50% of the cells)
- Hoechst 33342 nuclear staining score, Jurkat ([4]; conc 0.1): 0
- Hoechst 33342 nuclear staining score, Jurkat ([4]; conc 0.3): 0
- Hoechst 33342 nuclear staining score, Jurkat ([4]; conc 1): 2 (strong activity comprising more than 50% of the cells)
- Hoechst 33342 nuclear staining score, Jurkat ([4]; conc 3): 2 (strong activity comprising more than 50% of the cells)
- Hoechst 33342 nuclear staining score, MRC5 ([4]; conc 0.1): 0
- Hoechst 33342 nuclear staining score, MRC5 ([4]; conc 0.3): 0
- Hoechst 33342 nuclear staining score, MRC5 ([4]; conc 1): 0
- Hoechst 33342 nuclear staining score, MRC5 ([4]; conc 3): 2 (strong activity comprising more than 50% of the cells)
- Hoechst 33342 nuclear staining score, PBLs ([4]; conc 0.1): 0
- Hoechst 33342 nuclear staining score, PBLs ([4]; conc 0.3): 0
- Hoechst 33342 nuclear staining score, PBLs ([4]; conc 1): 0
- Hoechst 33342 nuclear staining score, PBLs ([4]; conc 3): 0
- IC50 [2]: < 1000 nM
- IC50 [3]: < 1000 nM

SMILES: Cc1ccc(S(=O)(=O)n2cc(-c3ccc(C(N)=O)cc3)cc2-c2ccc3c(c2)OCO3)cc1 [Example 47]
- Hoechst 33342 nuclear staining score, HeLa [4, 5]: 0
- Hoechst 33342 nuclear staining score, HeLa [4, 6]: 0
- Hoechst 33342 nuclear staining score, HeLa [4, 7]: 2 (strong activity comprising more than 50% of the cells)
- Hoechst 33342 nuclear staining score, HeLa [4, 8]: 2 (strong activity comprising more than 50% of the cells)
- Hoechst 33342 nuclear staining score, Jurkat [4, 5]: 0
- Hoechst 33342 nuclear staining score, Jurkat [4, 6]: 0
- Hoechst 33342 nuclear staining score, Jurkat [4, 7]: 0
- Hoechst 33342 nuclear staining score, Jurkat [4, 8]: 0
- IC50 [2]: > 1000 nM
- IC50 [3]: > 1000 nM

SMILES: NC(=O)c1ccc(-c2cc(-c3ccc4c(c3)OCO4)n(S(=O)(=O)c3cccc(Cl)c3)c2)cc1 [Example 5, p-(1-[m-chlorobenzenesulfonyl]-2-[3,4-methylenedioxyphenyl]-4pyrrolyl)-benzamide]
- IC50 ([1]; Homo sapiens): > 1000 nM
- IC50 ([2]; Homo sapiens): > 1000 nM
- IC50 ([3]; Homo sapiens): > 1000 nM

SMILES: Cc1ccc(S(=O)(=O)n2cc(CNCCc3ccccc3)cc2-c2ccc3c(c2)OCO3)cc1 [Example 43]
- IC50 [1]: > 1000 nM
- Hoechst 33342 nuclear staining score, HeLa [4, 6]: 0
- Hoechst 33342 nuclear staining score, HeLa [4, 7]: 0
- Hoechst 33342 nuclear staining score, HeLa [4, 8]: 0
- Hoechst 33342 nuclear staining score, HeLa [4, 9]: 0
- Hoechst 33342 nuclear staining score, Jurkat [4, 6]: 0
- Hoechst 33342 nuclear staining score, Jurkat [4, 7]: 0
- Hoechst 33342 nuclear staining score, Jurkat [4, 8]: 0
- Hoechst 33342 nuclear staining score, Jurkat [4, 9]: 0
- IC50 [3]: > 1000 nM

SMILES: Cc1ccc(S(=O)(=O)n2cc(CNc3ccc(CN4CCOCC4)cc3)cc2-c2ccc3c(c2)OCO3)cc1 [Example 41]
- IC50 [1]: > 1000 nM
- Hoechst 33342 nuclear staining score, HeLa [4, 6]: 0
- Hoechst 33342 nuclear staining score, HeLa [4, 7]: 0
- Hoechst 33342 nuclear staining score, HeLa [4, 8]: 0
- Hoechst 33342 nuclear staining score, HeLa [4, 9]: 0
- Hoechst 33342 nuclear staining score, Jurkat [4, 6]: 0
- Hoechst 33342 nuclear staining score, Jurkat [4, 7]: 0
- Hoechst 33342 nuclear staining score, Jurkat [4, 8]: 0
- Hoechst 33342 nuclear staining score, Jurkat [4, 9]: 0
- IC50 [3]: > 1000 nM
